Results reported in patent US10597364B2, “Anthelmintic compounds, compositions and method of using thereof” (priority 2015, dated 2020).
Like-named read-outs stand apart in the source and are kept apart here.

Tests used:
[1] = test system: microfilaria of Dirofilaria immitis; assay: Method C: microfilaria of Dirofilaria immitis motility screen; type: cell-based; conditions: read-out: inhibition of the microfilaria's motility
Haemonchus contortus = assay: Method A: Haemonchus contortus L1 larval development/motility screen in microtitre plate; type: cell-based; conditions: 96 h, read-out: motility inhibition

Row | SMILES | inhibition at 5 µM (Haemonchus contortus) | inhibition at 10 µM ([1]; 24 h) | also measured
1 | O=C(CC1CCCC1)N1CCN(c2ccnc(O[C@H]3CC[C@H](Nc4ccc([N+](=O)[O-])c(C(F)(F)F)c4)CC3)c2)CC1 [Compound 5, 2-cyclopentyl-1-(4-(2-(4-(4-nitro-3-(trifluoromethyl)phenylamino)cyclohexyloxy)pyridin-4-yl)piperazin-1-yl)ethanone] | ≥ 90% | – | inhibition at 5 ppm ([1]; 24 h): ≥ 90%
2 | CCCCC(=O)N1CCN(c2cncc(O[C@H]3CC[C@H](Nc4ccc([N+](=O)[O-])c(C(F)(F)F)c4)CC3)c2)CC1 [Compound 19, 1-[4-(5-[[4-[[4-nitro-3-(trifluoromethyl)phenyl]amino]cyclohexyl]oxy]pyridin-3-yl)piperazin-1-yl]pentan-1-one] | ≥ 90% | – | –
3 | O=C(CC1CCCC1)N1CCN(c2cncc(O[C@H]3CC[C@H](Nc4ccc([N+](=O)[O-])c(C(F)(F)F)c4)CC3)c2)CC1 [Compound 20] | ≥ 90% | – | –
4 | CC(C)(C)CC(=O)N1CCN(c2ccnc(O[C@H]3CC[C@H](Nc4ccc([N+](=O)[O-])c(C(F)(F)F)c4)CC3)c2)CC1 [Compound 25] | ≥ 90% | ≥ 90% | –
5 | CCCOC(=O)N1CCN(c2cc(O[C@H]3CC[C@H](Nc4ccc([N+](=O)[O-])c(C(F)(F)F)c4)CC3)ccn2)CC1 [Compound 26] | ≥ 90% | ≥ 90% | –
6 | O=C(CC1CC1)N1CCN(c2cc(O[C@H]3CC[C@H](Nc4ccc([N+](=O)[O-])c(C(F)(F)F)c4)CC3)ccn2)CC1 [Compound 28] | ≥ 90% | ≥ 90% | –
7 | O=C(Oc1ccc(F)cc1)N1CCN(c2ccnc(O[C@H]3CC[C@H](Nc4ccc([N+](=O)[O-])c(C(F)(F)F)c4)CC3)c2)CC1 [Compound 30] | ≥ 90% | – | inhibition at 5 ppm ([1]; 24 h): ≥ 90%
8 | CC(C)(C)CC(=O)N1CCN(c2cc(O[C@H]3CC[C@H](Nc4ccc([N+](=O)[O-])c(C(F)(F)F)c4)CC3)ccn2)CC1 [Compound 33] | ≥ 90% | ≥ 90% | –
9 | CCOC(=O)N1CCN(c2cncc(O[C@H]3CC[C@H](Nc4ccc([N+](=O)[O-])c(C(F)(F)F)c4)CC3)c2)CC1 [Compound 38] | ≥ 90% | – | inhibition at 5 ppm ([1]; 24 h): ≥ 90%
10 | CCCC(=O)N1CCN(c2ccnc(O[C@H]3CC[C@H](Nc4ccc([N+](=O)[O-])c(C(F)(F)F)c4)CC3)c2)CC1 [Compound 39] | ≥ 90% | – | inhibition at 5 ppm ([1]; 24 h): ≥ 90%
11 | CCCC(=O)N1CCN(c2cc(O[C@H]3CC[C@H](Nc4ccc([N+](=O)[O-])c(C(F)(F)F)c4)CC3)ccn2)CC1 [Compound 40] | ≥ 90% | – | inhibition at 10 µM ([1]; 10 μM, 24 hours): ≥ 90%
12 | CCCCN1CCN(c2cc(O[C@H]3CC[C@H](Nc4ccc([N+](=O)[O-])c(C(F)(F)F)c4)CC3)ccn2)CC1 [Compound 41] | ≥ 90% | ≥ 90% | –
13 | O=C(Cc1ccc(F)cc1)N1CCN(c2cc(O[C@H]3CC[C@H](Nc4ccc([N+](=O)[O-])c(C(F)(F)F)c4)CC3)ccn2)CC1 [Compound 46] | ≥ 90% | ≥ 90% | –
14 | O=[N+]([O-])c1ccc(N[C@H]2CC[C@H](Oc3cc(N4CCN(CC5CCCC5)CC4)ccn3)CC2)cc1C(F)(F)F [Compound 47] | ≥ 90% | ≥ 90% | –
15 | O=[N+]([O-])c1ccc(N[C@H]2CC[C@H](Oc3cncc(N4CCN(C/C=C/c5ccc(C(F)(F)F)cc5)CC4)c3)CC2)cc1C(F)(F)F [Compound 48] | ≥ 90% | – | inhibition at 5 ppm ([1]; 24 h): ≥ 90%
16 | CC(C)(C)NC(=O)N1CCN(c2cc(O[C@H]3CC[C@H](Nc4ccc([N+](=O)[O-])c(C(F)(F)F)c4)CC3)ccn2)CC1 [Compound 49] | ≥ 90% | ≥ 90% | –
17 | CC(C)(C)OC(=O)N1CCN(c2cncc(O[C@H]3CC[C@H](Nc4ccc(C#N)c(C(F)(F)F)c4)CC3)c2)CC1 [Compound 50] | ≥ 90% | – | –
18 | CCCCN1CCN(c2cncc(O[C@H]3CC[C@H](Nc4ccc([N+](=O)[O-])c(C(F)(F)F)c4)CC3)c2)CC1 [Compound 53] | ≥ 90% | ≥ 90% | –
19 | CC(C)(C)CN1CCN(c2cncc(O[C@H]3CC[C@H](Nc4ccc([N+](=O)[O-])c(C(F)(F)F)c4)CC3)c2)CC1 [Compound 54] | ≥ 90% | – | inhibition at 10 µM ([1]; 10 μM, 24 hours): ≥ 90%
20 | O=C(N1CCN(c2ccnc(O[C@H]3CC[C@H](Nc4ccc([N+](=O)[O-])c(C(F)(F)F)c4)CC3)c2)CC1)C(F)(F)F [Compound 58] | ≥ 90% | – | inhibition at 5 ppm ([1]; 5 ppm, 24 hours): ≥ 90%
21 | CC(C)(C)OC(=O)N1CCN(c2ccnc(O[C@H]3CC[C@H](Nc4ccc(C#N)c(C(F)(F)F)c4)CC3)c2)CC1 [Compound 59] | ≥ 90% | ≥ 90% | –
22 | CCC(=O)N1CCN(c2cc(O[C@H]3CC[C@H](Nc4ccc([N+](=O)[O-])c(C(F)(F)F)c4)CC3)ccn2)CC1 [Compound 60] | ≥ 90% | – | inhibition at 10 µM ([1]; 10 μM, 24 hours): ≥ 90%
23 | O=C(Cc1ccc(C(F)(F)F)cc1)N1CCN(c2ccnc(O[C@H]3CC[C@H](Nc4ccc([N+](=O)[O-])c(C(F)(F)F)c4)CC3)c2)CC1 [Compound 61] | ≥ 90% | – | inhibition at 5 ppm ([1]; 24 h): ≥ 90%
24 | O=[N+]([O-])c1ccc(N[C@H]2CC[C@H](Oc3cncc(N4CCN(Cc5nc6cc(C(F)(F)F)ccc6s5)CC4)c3)CC2)cc1C(F)(F)F [Compound 62] | ≥ 90% | – | –
25 | O=[N+]([O-])c1ccc(N[C@H]2CC[C@H](Oc3cncc(N4CCN(S(=O)(=O)C(F)(F)F)CC4)c3)CC2)cc1C(F)(F)F [Compound 63] | ≥ 90% | – | –
26 | CCCOC(=O)N1CCN(c2ccnc(O[C@H]3CC[C@H](Nc4ccc(C#N)c(C(F)(F)F)c4)CC3)c2)CC1 [Compound 74] | ≥ 90% | – | –

Row | SMILES | inhibition at 5 µM (Haemonchus contortus) | inhibition at 10 µM ([1]; 24 h) | also measured
27 | CC(C)(C)CN1CCN(c2ccnc(O[C@H]3CC[C@H](Nc4ccc([N+](=O)[O-])c(C(F)(F)F)c4)CC3)c2)CC1 [Compound 84] | ≥ 90% | – | –
28 | O=[N+]([O-])c1ccc(N[C@H]2CC[C@H](Oc3cncc(N4CCN(C(=S)Nc5ccc(C(F)(F)F)cc5)CC4)c3)CC2)cc1C(F)(F)F [Compound 88] | ≥ 90% | – | –
29 | O=[N+]([O-])c1ccc(N[C@H]2CC[C@H](Oc3cncc(N4CCN(c5ccc6cc(C(F)(F)F)ccc6n5)CC4)c3)CC2)cc1C(F)(F)F [Compound 90] | ≥ 90% | – | –
30 | O=C(Nc1ccc(C(F)(F)F)cc1)N1CCN(c2cncc(O[C@H]3CC[C@H](Nc4ccc([N+](=O)[O-])c(C(F)(F)F)c4)CC3)c2)CC1 [Compound 94] | ≥ 90% | – | –
31 | CCCCC(=O)N1CCN(c2cccc(O[C@H]3CC[C@H](Nc4ccc([N+](=O)[O-])c(C(F)(F)F)c4)CC3)n2)CC1 [Compound 136] | – | ≥ 90% | –
32 | O=C(Cc1cc(C(F)(F)F)cc(C(F)(F)F)c1)N1CCN(c2cc(O[C@H]3CC[C@H](Nc4ccc([N+](=O)[O-])c(C(F)(F)F)c4)CC3)ccn2)CC1 [Compound 137] | – | ≥ 90% | –
33 | O=C(Nc1ccc(C(F)(F)F)cc1)N1CCN(c2ccnc(O[C@H]3CC[C@H](Nc4ccc([N+](=O)[O-])c(C(F)(F)F)c4)CC3)c2)CC1 [Compound 138] | – | ≥ 90% | –
34 | O=C(Nc1ccc(C(F)(F)F)cc1)N1CCN(c2cccc(O[C@H]3CC[C@H](Nc4ccc([N+](=O)[O-])c(C(F)(F)F)c4)CC3)n2)CC1 [Compound 139] | – | ≥ 90% | –
35 | O=[N+]([O-])c1ccc(N[C@H]2CC[C@H](Oc3ccnc(N4CC5CN(c6ccc(C(F)(F)F)cn6)CC5C4)c3)CC2)cc1C(F)(F)F (some centres unmarked) [Compound 140] | – | ≥ 90% | –
36 | O=[N+]([O-])c1ccc(N[C@H]2CC[C@H](Oc3cccc(N4CCN(CC5CCCC5)CC4)n3)CC2)cc1C(F)(F)F [Compound 142] | – | ≥ 90% | –
37 | O=C(NC1CCCC1)N1CCN(c2cccc(O[C@H]3CC[C@H](Nc4ccc([N+](=O)[O-])c(C(F)(F)F)c4)CC3)n2)CC1 [Compound 147] | – | ≥ 90% | –
38 | CC(C)(C)NC(=O)N1CCN(c2cccc(O[C@H]3CC[C@H](Nc4ccc([N+](=O)[O-])c(C(F)(F)F)c4)CC3)n2)CC1 [Compound 150] | – | ≥ 90% | –
39 | CC(C)(C)OC(=O)N1CCN(c2cc(O[C@H]3CC[C@H](Nc4ccc(C#N)c(C(F)(F)F)c4)CC3)ccn2)CC1 [Compound 151] | – | ≥ 90% | –
40 | CNC(=O)N1CCN(c2cncc(O[C@H]3CC[C@H](Nc4ccc([N+](=O)[O-])c(C(F)(F)F)c4)CC3)c2)CC1 [Compound 154] | – | ≥ 90% | –
41 | CNC(=O)N1CCN(c2ccnc(O[C@H]3CC[C@H](Nc4ccc([N+](=O)[O-])c(C(F)(F)F)c4)CC3)c2)CC1 [Compound 155] | – | ≥ 90% | –
42 | CCCCN1CCN(c2cccc(O[C@H]3CC[C@H](Nc4ccc([N+](=O)[O-])c(C(F)(F)F)c4)CC3)n2)CC1 [Compound 157] | – | ≥ 90% | –
43 | CCCN1CCN(c2cccc(O[C@H]3CC[C@H](Nc4ccc([N+](=O)[O-])c(C(F)(F)F)c4)CC3)n2)CC1 [Compound 158] | – | ≥ 90% | –
44 | CCN1CCN(c2cc(O[C@H]3CC[C@H](Nc4ccc([N+](=O)[O-])c(C(F)(F)F)c4)CC3)ccn2)CC1 [Compound 160] | – | ≥ 90% | –
45 | O=C(CC1CCCC1)N1CCN(c2ccnc(O[C@H]3CC[C@H](Nc4ccc(S(=O)(=O)C(F)(F)F)cc4)CC3)c2)CC1 [Compound 163] | ≥ 90% | – | –
46 | CCCOC(=O)N1CCN(c2cc(O[C@H]3CC[C@H](Nc4ccc(C#N)c(C(F)(F)F)c4)CC3)ccn2)CC1 [Compound 176] | ≥ 90% | – | –
47 | N#Cc1ccc(N[C@H]2CC[C@H](Oc3cncc(N4CCN(C(=O)CC5CCCC5)CC4)c3)CC2)cc1C(F)(F)F [Compound 180] | ≥ 90% | – | –
48 | CC(C)(C)OC(=O)N1CCN(c2cc(O[C@H]3CC[C@H](Nc4ccc(S(=O)(=O)C(F)(F)F)cc4)CC3)ccn2)CC1 [Compound 186] | – | ≥ 90% | –
49 | CCCOC(=O)N1CCN(c2cc(O[C@H]3CC[C@H](Nc4ccc(S(=O)(=O)C(F)(F)F)cc4)CC3)ccn2)CC1 [Compound 187] | – | ≥ 90% | –
50 | O=C(CC1CCCC1)N1CCN(c2cncc(O[C@H]3CC[C@H](Nc4ccc(S(=O)(=O)C(F)(F)F)cc4)CC3)c2)CC1 [Compound 193] | ≥ 90% | – | –
51 | O=S(=O)(c1ccc(N[C@H]2CC[C@H](Oc3cncc(N4CCN(c5ccc(C(F)(F)F)cn5)CC4)c3)CC2)cc1)C(F)(F)F [Compound 195] | – | ≥ 90% | –
